Here are results for 37 compounds from patent US7812170B2, “Insecticides” (Syngenta Crop Protection, Inc., priority 2004, dated 2010).

The structures appear in SMILES notation. Where only a bound is given, the exact number is not on record here.

One series has as its system Spodoptera littoralis. As to the kind of experiment: Activity against Spodoptera littoralis (sprayed soya plants). It is filed as in vivo. The settings on record: 72 h, 400 ppm active ingredient, sprayed young soya plants, 1st instar caterpillars, 3 days, read-out: percentage reduction in the population and in the feeding damage (% activity). The protocol:
Activity Against Spodoptera littoralis Young soya plants are sprayed with an aqueous emulsion spray mixture comprising 400 ppm of active ingredient and, after the spray coating has dried on, populated with 10 caterpillars (1st instar) of Spodoptera littoralis and introduced into a plastic container. 3 days later, the percentage reduction in the population and in the feeding damage (% activity) are determined by comparing the number of dead caterpillars and the feeding damage between the treated and untreated plants.

For a further series, the system named is Heliothis virescens. The series is described as follows: Activity against Heliothis virescens (foliar application). The format is in vivo. The following applies: 144 h, 400 ppm active ingredient, sprayed young soya plants, 1st instar caterpillars, 6 days, read-out: percentage reduction in the population and in the feeding damage (% activity). How it is done: Activity Against Heliothis virescens (Foliar Application) Young soya plants are sprayed with an aqueous emulsion spray mixture comprising 400 ppm of active ingredient and, after the spray coating has dried on, populated with 10 caterpillars (1st instar) of Heliothis virescens and introduced into a plastic container. 6 days later, the percentage reduction in the population and in the feeding damage (% activity) are determined by comparing the number of dead caterpillars and the feeding damage between the treated and untreated plants.

For the next series, the system named is Plutella xylostella. As to the kind of experiment: Activity against Plutella xylostella (sprayed cabbage plants). The format is in vivo. The settings on record: 72 h, 400 ppm active ingredient, sprayed young cabbage plants, 3rd instar caterpillars, 3 days, read-out: percentage reduction in the population and in the feeding damage (% activity). How it is done:
Activity Against Plutella xylostella Young cabbage plants are sprayed with an aqueous emulsion spray mixture comprising 400 ppm of active ingredient and, after the spray coating has dried on, populated with 10 caterpillars (3rd instar) of Plutella xylostella and introduced into a plastic container. 3 days later, the percentage reduction in the population and in the feeding damage (% activity) are determined by comparing the number of dead caterpillars and the feeding damage between the treated and untreated plants.

`CC(C)NC(=O)c1c(NC(=O)c2cc(C(F)(F)F)nn2-c2ncccc2Cl)nc2c(c1-c1cccc(Cl)c1)CCCC2` [Compound T53.3] displayed a melting point of 259 to 260 °C.
The same measure, in the same setting: as for `CNC(=O)c1c(NC(=O)c2cc(C(F)(F)F)nn2-c2ncccc2Cl)nc2c(c1-c1ccccc1)CCCC2` [Compound T51.1], the figure is 165 to 168 °C.
As to `CC(C)NC(=O)c1cc2cc(C#N)ccc2c(Cl)c1NC(=O)c1cc(C(F)(F)F)nn1-c1ncccc1Cl` [Compound T5.3], the inhibition at 400 ppm in the series on Spodoptera littoralis, in the series with Heliothis virescens and with Plutella xylostella was over 80% throughout.
With `CNC(=O)c1cc2cc(Br)ccc2c(Br)c1NC(=O)c1cc(C(F)(F)F)nn1-c1ncccc1Cl` [Compound T9.1], the inhibition at 400 ppm in the series with Spodoptera littoralis, in the series with Heliothis virescens and in the series with Plutella xylostella was over 80% throughout.
Turning to `Cc1c(NC(=O)c2cc(C(F)(F)F)nn2-c2ncccc2Cl)c(C(=O)NC(C)C)cc2c1OC(C)(C)O2`, the melting point lay within 256 to 258 °C.
Same read-out and setting: as for `CNC(=O)c1cc2c(c(Cl)c1NC(=O)c1cc(C(F)(F)F)nn1-c1ncccc1Cl)OC(F)(F)O2`, the figure is 265 to 267 °C.
The compound `CNC(=O)c1c(NC(=O)c2cc(C(F)(F)F)nn2-c2ncccc2Cl)nc2c(c1-c1ccccc1)CCCCC2` [Compound T52.1] registered a melting point of 211 to 213 °C.
In the case of `CNC(=O)[C@H]1Cc2ccccc2C(C)[C@H]1NC(=O)c1cc(C(F)(F)F)nn1-c1ncccc1Cl` (stereo partly shown) [Compound T73.1], the melting point fell in the range of 205 to 207 °C.
For the compound `CC(C)NC(=O)c1c(NC(=O)c2cc(C(F)(F)F)nn2-c2ncccc2Cl)nc2c(c1-c1ccccc1)CCCCC2` [Compound T52.3], the melting point fell in the range of 269 to 270 °C.
On the same count and under the same terms, in the case of `CSCC(C)(C)NC(=O)[C@H]1Cc2ccccc2C[C@H]1NC(=O)c1cc(C(F)(F)F)nn1-c1ncccc1Cl` [Compound T72.273] it was 184 to 186 °C; in that of `CC1c2ccccc2C[C@H](C(=O)NC2CC2)[C@@H]1NC(=O)c1cc(C(F)(F)F)nn1-c1ncccc1Cl` (stereo partly shown) [Compound T73.207], 192 to 194 °C.
As for `CNC(=O)c1cc2ccccc2c(C)c1NC(=O)c1cc(C(F)(F)F)nn1-c1ncccc1Cl` [Compound T8.1], the inhibition at 400 ppm in the series on Spodoptera littoralis, in the series on Heliothis virescens and in the series with Plutella xylostella was over 80% in each case.
As for `Cc1c(NC(=O)c2cc(C(F)(F)F)nn2-c2ncccc2Cl)c(C(=O)NC(C)C)nc2ccccc12` [Compound T75.3], the inhibition at 400 ppm in the series with Spodoptera littoralis, in the series with Heliothis virescens and in the series with Plutella xylostella was over 80% throughout.
Turning to `CNC(=O)c1c(NC(=O)c2cc(C(F)(F)F)nn2-c2ncccc2Cl)c(C)nc2ccccc12` [Compound T81.1], the inhibition at 400 ppm in the series with Heliothis virescens and in the series with Plutella xylostella was over 80% in each case.
Regarding `CC(C)NC(=O)c1cc2cc(Br)ccc2c(Br)c1NC(=O)c1cc(C(F)(F)F)nn1-c1ncccc1Cl` [Compound T9.3], the inhibition at 400 ppm in the series with Spodoptera littoralis, with Heliothis virescens and in the series on Plutella xylostella was over 80% each time.
`CC(C)NC(=O)c1cc2c(nc1NC(=O)c1cc(C(F)(F)F)nn1-c1ncccc1Cl)CCCC2` [Compound T50.3] gave a melting point of 143 to 145 °C.
With `CC(C)NC(=O)c1cc(Cl)c2ccccc2c1NC(=O)c1cc(C(F)(F)F)nn1-c1ncccc1Cl` [Compound T22.3], the inhibition at 400 ppm in the series with Plutella xylostella is over 80%.
On to `CCNC(=O)c1cc2cc(Br)ccc2c(Cl)c1NC(=O)c1cc(C(F)(F)F)nn1-c1ncccc1Cl` [Compound T2.2], for which the inhibition at 400 ppm in the series on Spodoptera littoralis, with Heliothis virescens and in the series with Plutella xylostella was over 80% each time.
As for `CNC(=O)c1c(NC(=O)c2cc(C(F)(F)F)nn2-c2ncccc2Cl)sc2c1CCCC2` [Compound T46.1], the melting point was in the range of 261 to 263 °C.
`Cc1snc2sc(C(=O)NC(C)C)c(NC(=O)c3cc(C(F)(F)F)nn3-c3ncccc3Cl)c12` [Compound T88.3]: the melting point was 261 to 263 °C.
In turn, `CNC(=O)c1cc2c(nc1NC(=O)c1cc(C(F)(F)F)nn1-c1ncccc1Cl)CCCC2` [Compound T50.1] showed a melting point of 145 to 147 °C.
With `CNC(=O)c1cc2cc(Br)ccc2c(Cl)c1NC(=O)c1cc(C(F)(F)F)nn1-c1ncccc1Cl` [Compound T2.1], the inhibition at 400 ppm with Spodoptera littoralis, in the series with Heliothis virescens and in the series on Plutella xylostella was over 80% in each case.
`CC(C)NC(=O)c1cc2c([N+](=O)[O-])cccc2c(Cl)c1NC(=O)c1cc(C(F)(F)F)nn1-c1ncccc1Cl` [Compound T76.3]: the inhibition at 400 ppm in the series on Spodoptera littoralis, in the series with Heliothis virescens and in the series on Plutella xylostella was over 80% in each case.
With `CNC(=O)c1cc2ccccc2c([N+](=O)[O-])c1NC(=O)c1cc(C(F)(F)F)nn1-c1ncccc1Cl` [Compound T78.1], the inhibition at 400 ppm with Plutella xylostella is over 80%.
`CC(C)NC(=O)c1c(NC(=O)c2cc(C(F)(F)F)nn2-c2ncccc2Cl)nc2c(c1-c1ccccc1)CCCC2` [Compound T51.3] showed a melting point of 146 to 148 °C.
Compound `CNC(=O)c1c(NC(=O)c2cc(C(F)(F)F)nn2-c2ncccc2Cl)sc2c1CCC(OC)C2` (stereo not shown) [Compound T74.1] had a melting point of 133 to 135 °C.
Still for that read-out and setting: in the case of `CNC(=O)c1c(NC(=O)c2cc(C(F)(F)F)nn2-c2ncccc2Cl)nc2c(c1-c1cccc(Cl)c1)CCCC2` [Compound T53.1] it was 183 to 185 °C.
Take `CC(C)NC(=O)c1c(NC(=O)c2cc(C(F)(F)F)nn2-c2ncccc2Cl)sc2c1CCCC2` [Compound T46.3]: the melting point lay within 246 to 248 °C.
Same read-out and setting: in the case of `CNC(=O)c1cc2c(c(C)c1NC(=O)c1cc(C(F)(F)F)nn1-c1ncccc1Cl)OC(C)(C)O2` it was 242 to 244 °C.
Still for that read-out and setting: in the case of `CC(C)NC(=O)[C@H]1Cc2ccccc2C[C@H]1NC(=O)c1cc(C(F)(F)F)nn1-c1ncccc1Cl` [Compound T72.3] it was 229 to 232 °C; in that of `CNC(=O)[C@H]1Cc2ccccc2C[C@H]1NC(=O)c1cc(C(F)(F)F)nn1-c1ncccc1Cl` [Compound T72.1], 226 to 228 °C.
Same read-out and setting: in the case of `CNC(=O)c1cc2c(c(Br)c1NC(=O)c1cc(C(F)(F)F)nn1-c1ncccc1Cl)OC(C)(C)O2` it was 274 to 276 °C; in that of `COC1CCc2c(sc(NC(=O)c3cc(C(F)(F)F)nn3-c3ncccc3Cl)c2C(=O)NC(C)C)C1` (stereo not shown) [Compound T74.3], 206 to 207 °C.
The compound `O=C(N[C@@H]1Cc2ccccc2C[C@@H]1C(=O)NC1CC1)c1cc(C(F)(F)F)nn1-c1ncccc1Cl` [Compound T72.207] returned a melting point of 230 to 233 °C.
The same measure, in the same setting: in the case of `CC(C)NC(=O)[C@H]1Cc2ccccc2C(C)[C@H]1NC(=O)c1cc(C(F)(F)F)nn1-c1ncccc1Cl` (stereo partly shown) [Compound T73.3] it was 223 to 225 °C.
As to `CNC(=O)c1sc2cccc(Cl)c2c1NC(=O)c1cc(C(F)(F)F)nn1-c1ncccc1Cl` [Compound T79.1], the inhibition at 400 ppm in the series with Heliothis virescens and with Plutella xylostella was over 80% throughout.
On to `CNC(=O)c1sc2nsc(C)c2c1NC(=O)c1cc(C(F)(F)F)nn1-c1ncccc1Cl` [Compound T88.1], for which the melting point was 264 to 266 °C.

A word on the melting point: it is the temperature of the solid-liquid transition.
